In patent US10517850B2, “Combination of TAFIa inhibitor with plasminogen activator” (DAIICHI SANKYO COMPANY, LIMITED, priority 2015, dated 2019):

How the values were obtained:
[1] = system: fibrinolytic activity (D-dimer level in plasma); test: Test on combined use with u-PA: tissue factor-infused rats, plasma D-dimer level as index for fibrinolytic activity; type: in vivo, male Wistar rats
Experimental: (1) u-PA (urokinase injection “Fuji” (registered trademark) 60,000, Wakamoto Co., Ltd.) was adjusted to 90 kU/mL with injectable water.
(2) Compound A was dissolved in saline to prepare a 1.0 mg/mL solution. The solution was further diluted to 0.0050 mg/mL using saline. The dose of compound A was indicated in terms of a free form (conversion factor: 0.6301).
(3) Appropriate amounts of saline, the 90 kU/mL u-PA solution, and the 0.0050 mg/mL compound A solution were mixed to respectively prepare administration solutions for a u-PA (30 kU/kg) group, a compound A (2.5 μg/kg) group, and a combination group of u-PA (30 kU/kg) and compound A (2.5 μg/kg).
(4) 5 mL of saline was added to 10 mL (standard) of a tissue factor (Dade (registered trademark) Innovin (registered trademark), Sysmex Corp.) to prepare a tissue factor solution.
(1) Eleven-week-old male Wistar rats (Japan SLC, Inc.) were fasted from a day before the experiment. On the basis of their body weights measured in the morning on the day of the experiment, 8 rats were assigned to each of 4 groups: a control (saline) group, a u-PA (30 kU/kg) group, a compound A (2.5 μg/kg) group, and a combination group of u-PA (30 kU/kg) and compound A (2.5 μg/kg). […]
(2) For each group, the basic statistics (mean and standard error) of the D-dimer levels were calculated and used as results relating to fibrinolytic activity (Table 2). […]

[2] = system: fibrinolytic activity (D-dimer level in plasma); test: Test on combined use with t-PA: tissue factor-infused rats, plasma D-dimer level as index for fibrinolytic activity; type: in vivo, male Wistar rats; conditions: for D-dimer level Mean: jugular vein, blood at 45 min, N=7, control 5.0
Experimental: 1. Preparation of Administration Solution
(1) (2S)-5-Amino-2-{[1-(trans-4-methylcyclohexyl)-1H-imidazol-4-yl]methyl}valeric acid p-toluenesulfonate anhydrate (hereinafter, referred to as “compound A”) was dissolved in saline to prepare a 1.0 mg/mL solution. The solution was further diluted to 0.0050 mg/mL using saline. The dose of compound A was indicated in terms of a free form (conversion factor: 0.6301).
(2) t-PA (alteplase (Activacin (registered trademark) for Injection 6,000,000), Kyowa Hakko Kirin Co., Ltd.) was adjusted to 600,000 I.U./mL (which was defined as 1.0 mg/mL) with injectable water included therein. The resulting solution was further diluted to 0.17, 0.083, and 0.042 mg/mL using saline.
(3) The 0.0050 mg/mL compound A solution was mixed with an equal amount of saline or the 0.042 mg/mL t-PA solution to respectively prepare administration solutions for a compound A (2.5 μg/kg) group and a combination group. The 0.17, 0.083, and 0.042 mg/mL t-PA solutions were mixed with an equal amount of saline to respectively prepare administration solutions for t-PA (0.083, 0.042, and 0.021 mg/kg) groups.
(4) 4 mL of saline was added to 10 mL (standard) of a tissue factor (Dade (registered trademark) Innovin (registered trademark), Sysmex Corp.) to prepare a tissue factor solution.
(1) Ten-week-old male Wistar rats (Japan SLC, Inc.) were fasted from a day before the experiment. On the basis of their body weights measured in the morning on the day of the experiment, 7 rats were assigned to each of 6 groups: a control (saline) group, a compound A (2.5 μg/kg) group, t-PA (0.021, 0.042, and 0.083 mg/kg) groups, and a combination group of compound A (2.5 μg/kg) and t-PA (0.021 mg/kg).
(2) These rats were anesthetized by the administration of 100 mg/kg thiopental sodium (Ravonal (registered trademark), Mitsubishi Tanabe Pharma Corp.), and the tissue factor solution was continuously administered at 7.5 mL/kg/hr for 20 minutes from the jugular veins. 25 minutes after the start of the administration of the tissue factor, the administration solution for each group was rapidly administered from the jugular veins. 45 minutes after the start of the administration of the tissue factor, blood was collected from the jugular veins into syringes supplemented with citric acid in advance, and plasma was prepared by centrifugation. The plasma was diluted 20-fold using a factor diluent (LSI Medience Corp.). D-dimer levels were measured using LPIA-Ace D-D dimer II and ACL TOP 500 CTS (Instrumentation Laboratory) and used as an index for fibrinolytic activity (FIG. 1).
(1) Microsoft Excel 2003 and SAS System Release 8.2 were used in statistical analysis.
(2) For each group, the basic statistics (mean and standard error) of the D-dimer levels were calculated and used as results relating to fibrinolytic activity (Table 1).
(3) The comparison of the compound A (2.5 μg/kg) group with the control (saline) group was carried out by the Student's t test. The calculated P value was rounded off and indicated down to four decimal places, and the significance level was set to two-sided 5%.
(4) The comparison of the t-PA (0.021, 0.042, and 0.083 mg/kg) groups with the control (saline) group was carried out by the parametric Dunnett's test. The calculated P value was rounded off and indicated down to four decimal places, and the significance level was set to two-sided 5%.
(5) The comparison of the compound A (2.5 μg/kg) group or the t-PA (0.021 mg/kg) single administration group with the combination group was carried out by the parametric Dunnett's test. The calculated P value was rounded off and indicated down to four decimal places, and the significance level was set to two-sided 5%.
(6) The comparison of the compound A (2.5 μg/kg) group or the t-PA (0.021 mg/kg) single administration group with the combination group was carried out by two-way ANOVA. […]

Compound	D-dimer level Mean ([1]; compound A 2.5 μg/kg (free form) alone, jugular vein, blood at 45 min, N=8, control 24.2) [µg/mL]	fibrinolytic activity (D-dimer level) with respect to the control group ([1]; compound A 2.5 μg/kg single administration, Student's t test, P=0.0019)	D-dimer level Mean ([2]; compound A 2.5 μg/kg (free form) alone, 25 min after start of tissue factor) [µg/mL]	fibrinolytic activity (D-dimer level) with respect to the control (saline) group ([2]; compound A 2.5 μg/kg, Student's t test, P=0.1431)	D-dimer level Mean ([2]; t-PA 0.021 mg/kg alone) [µg/mL]	fibrinolytic activity (D-dimer level) with respect to the control (saline) group ([2]; t-PA 0.021 mg/kg, parametric Dunnett's test, P=0.3080)	D-dimer level Mean ([2]; t-PA 0.042 mg/kg alone) [µg/mL]	fibrinolytic activity (D-dimer level) with respect to the control (saline) group ([2]; t-PA 0.042 mg/kg, parametric Dunnett's test, P<0.0001)	D-dimer level Mean ([2]; t-PA 0.083 mg/kg alone) [µg/mL]	fibrinolytic activity (D-dimer level) with respect to the control (saline) group ([2]; t-PA 0.083 mg/kg, parametric Dunnett's test, P<0.0001)
C[C@H]1CC[C@H](n2cnc(C[C@H](CCCN)C(=O)O)c2)CC1.Cc1ccc(S(=O)(=O)O)cc1 (relative stereo) [Compound A, (2S)-5-Amino-2-{[1-(trans-4-methylcyclohexyl)-1H-imidazol-4-yl]methyl}valeric acid p-toluenesulfonate anhydrate]	103.8	exhibited significantly excellent fibrinolytic activity	26.4	did not exhibit significantly excellent fibrinolytic activity	–	–	–	–	–	–
t-PA: tissue plasminogen activator, alteplase (Activacin for Injection 6,000,000, Kyowa Hakko Kirin)	–	–	–	–	25.0	did not exhibit significantly excellent fibrinolytic activity	95.2	exhibited significantly excellent fibrinolytic activity	254.7	exhibited significantly excellent fibrinolytic activity
